Measurements reported in paper PMC3586229 (Bioorganic & medicinal chemistry letters, 2012).

Type: physicochemical
Settings: for Stability in aqueous solution (MS, time course): DMSO solution diluted 1 to 1000 in water, followed over 24 h

| SMILES | Stability in aqueous solution (MS, time course) | Stability in buffer solution (buffer solution, pH 7.4) |
| --- | --- | --- |
| CC(C)C[C@H](NC(=O)OCc1ccccc1)C(=O)N[C@@H](CC1CCNC1=O)C(O)S(=O)(=O)[O-].[Na+] (stereo partly drawn) [Compound 7a] | remains unchanged as the bisulfite form after 24 h | gradually dissociates into the corresponding aldehyde 6a within an hour |
| CC(C)C[C@H](NC(=O)OCc1ccccc1)C(=O)N[C@H](C=O)CC1CCNC1=O (stereo partly drawn) [Compound 6a] | the hydrated form was the dominant species after only five minutes exposure to water |  |
